Source: patent US20260060947A1 (INSTITUT PASTEUR DE MONTEVIDEO, priority 2019, published 2026)

Legend:
[1] = Electrophilic reactivity: reaction between BANA and β-mercaptoethanol followed by UV-Visible spectra; format: physicochemical; conditions: BANA 30 μM, β-ME 300 μM, phosphate buffer 20 mM pH=7.4, scans each min up to 15 min
Method: Most electrophilic nitroalkene compounds exert their pharmacological activity via a Michael addition reaction with nucleophiles. To study the electrophilic properties of BANA, the reaction between -mercaptoethanol (BME) and BANA was studied spectrophotometrically.
The electrophilic reactivity of BANA compound was determined by analyzing the UV-Visible spectra of the reaction between BANA and β-Mercaptoethanol (β-ME). BANA (30 μM) was incubated with β-ME (300 μM) in Phosphate buffer (20 mM) pH=7.4, and scans were taken each min up to 15 min.

NF-κB = test: RT-qPCR of NF-κB-associated cytokine mRNA in LPS-stimulated SOD1^G93A primary microglia; format: cell-based, rat; conditions: adult microglia isolated from symptomatic SOD1^G93A rats
Method: FIG. 8F: Analysis by RT-qPCR of mRNA levels of NF-κB-associated proinflammatory cytokines CCL2, IL-6, IL-1β, and TNFα following LPS-stimulation in SOD1^G93A primary microglia.
BANA inhibits LPS-induced NF-κB-p65 nuclear translocation in SOD1^G93A microglia. Nuclear NF-κB-p65 colocalizing with DAPI nuclear staining is denoted in yellow. […] All quantitative data are expressed as mean±SEM; data were analyzed by Ordinary one-way ANOVA followed by Tukey's multiple comparisons test, ****p<0,0001, 3 replicates of 4 independent experiments. Scale bar=20 μm. […] BANA prevents NF-κB-mediated gene transcription induced by LPS. Data are expressed as mean±SEM; data were analyzed by Ordinary one-way ANOVA followed by Tukey's multiple comparisons test, *p=0.0395 (CCL2) *p=0.0409 (IL-6) **p=0.0049 (IL-10) *p=0.0292 **p=0.0063 (TNFα). 2 replicates of 3 independent experiments.

[2] = LC50 in cell culture of HT-29; format: cell-based; conditions: human, HT-29 cells; HT-29 cell culture
SOD1^G93A rats [3] = test: Post-paralysis survival trial in SOD1^G93A rats; format: in vivo, rat
Method: Only female transgenic rats showing weakness and gait alterations in the […] as the first clinical sign were selected for BANA treatment studies. Rats were divided randomly into BANA or vehicle-treated groups. BANA was freshly prepared in buffer phosphate (PB), and administrated daily at a dose of 100 mg/kg using a curved stainless steel gavage needle with 3-mm ball tip. Rats were treated from day-1 post-paralysis for 15 days or until end-stage when they were euthanized.
All rats were weighed and evaluated for motor activity daily. Disease onset was determined for each animal when pronounced muscle atrophy accompanied by abnormal gait, typically expressed as subtle limping or dragging of one hind limb. End-stage was defined by a lack of righting reflexes or the inability to reach food and water.
Survival curves were compared by Kaplan-Meier analysis with the Log-rank test using GraphPad Prism 7 software.
To test whether systemic treatment with BANA could prolong the survival of SOD1^G93A rats, a trial was conducted in which rats were orally treated with BANA (100 mg/kg/day) or vehicle, starting immediately after paralysis onset of one hind limb until the end-stage of the disease.

SOD1^G93A rats [4] = test: Motor neuron analysis in lumbar spinal cord (ChAT, soma size, ubiquitin, nitrotyrosine, synaptic terminals); format: in vivo, rat
Method: One of the main features of ALS in both human patients and animal models is motor neuron loss, thus the effect of BANA on motor neuron size and number was characterized. To further investigate the protective effect of BANA on motor neuron pathology in SOD1^G93A symptomatic rats, experiments were conducted to assess the number of synaptic terminals contacting motor neuron cell bodies in the ventral spinal cord as well as the denervation of neuromuscular junctions.
The number of motor neurons expressing ChAT was assessed by counting the positive cells in the gray matter of the lumbar spinal cord of non-transgenic compared with symptomatic SOD1^G93A onset, vehicle- and BANA treated rats. Motor neuron counting was assessed by counting ChAT positive cells in the ventral horn on eight 30 μm sections taken 100 μm apart. The longest axis (length) of each soma was taken into consideration to quantify the mean size of motor neuron soma. The analysis was performed manually in at least 10 histological sections per animal (four different rats for each condition) using the cell counter tool of the ImageJ software. Statistical studies were performed using statistical tools of the GraphPad Prism 7 software. Descriptive statistics were used for each group, and Kruskal-Wallis analysis followed by Dunn's comparison test was used among groups. Results are presented as mean±SEM, with p<0.05 considered significant.
In other experiments, the number of synaptic vesicles contacting motor neuron cell bodies was assessed by immunohistochemistry by counting VGlut-1-positive and Synaptophysin-positive puncta in Rexed laminae VII and IX. Synaptic terminals were quantified in at least 20 motor neurons per animal (4 different rats per condition) using the Analyze Particles tool of ImageJ software.

NF-kB = NF-kB activation after sciatic nerve section in NF-kB-RE-Luc mice (in vivo luminescence); parameters: species or system mouse; conditions: oral 100 mg/kg/day day 0 to day 4, vs vehicle
Method: FIG. 17A: Scheme of the experimental design in which NF-kB-RE-Luc tg mice were treated with 100 mg/kg/day of BANA or vehicle starting immediately before sciatic nerve section (day 0) until day 4.
For NF-kB in vivo imaging studies, the NF-kB-RE-Luc random transgenic mouse model (Taconic, BALB/c-Tg(Rela-luc)31Xen) aged 6-8 weeks was used. These animals carry a transgene containing 6 NF-kB-responsive elements (RE) from the CMVα (immediate early) promoter placed upstream of a basal SV40 promoter, and a modified firefly luciferase cDNA (Promega pGL3). Animals were randomized divided into two groups and orally administrated with 100 mg/kg of BANA or Vehicle (phosphate buffer) starting immediately before sciatic nerve section in the right hindlimb and continuing for 4 days. At day 1, 2 and 4 post-surgery, differences in luciferase activity were compared between groups. To accomplish that, 150 mg/kg of the substrate D-luciferin (#K9918PE, XenoLight) dissolved in PBS, pH 7.4, was injected intraperitoneally to each mouse. […] Changes in NF-kB activity were quantified after comparing the differences of luminescence in the right hindlimb between groups, using ImageJ software.

[5] = oral 100 mg/kg/day from paralysis onset until end-stage
[6] = 100 mg/kg/day, 15 days after paralysis onset, vs vehicle

Question: With `O=C(O)c1ccc(/C=C/[N+](=O)[O-])cc1` [BANA, (E)-4-(2-nitrovinyl) benzoic acid] as the compound, how does the “reaction with β-mercaptoethanol (UV-Visible absorbance)” value [1] read?
Answer: react with 3-ME, resulting in a decreased in absorbance

Question: What about the “LPS-induced NF-κB-dependent transcription of CCL2/MCP1, IL-6, IL-1β and TNFα (RT-qPCR)” value (NF-κB) of the same compound?
Answer: prevented

Question: What about the CC50 [2] of the same compound?
Answer: 80 µM

Question: What about the “increase probability of survival compared with vehicle-treated rats” value (SOD1^G93A rats [3]; [5]) of the same compound?
Answer: 32%

Question: And the mean survival time (SOD1^G93A rats [3]; [5])?
Answer: evidence of a survival benefit

Question: And the “post-paralysis survival prolonged respect to vehicle” value (SOD1^G93A rats [3]; oral, starting after disease onset)?
Answer: 32%

Question: What about the “loss of VGlut-1-positive and Synaptophysin-positive synaptic terminals” value (SOD1^G93A rats [4]; 100 mg/kg/day post-paralysis, vs vehicle) of the same compound?
Answer: significantly prevented

Question: What about the “number of ChAT+ motor neurons” value (SOD1^G93A rats [4]; 100 mg/kg/day, 15 days after paralysis onset) of the same compound?
Answer: prevented motor neuron loss

Question: And the “NO2-Tyrosine accumulation in surviving motor neurons” value (SOD1^G93A rats [4]; [6])?
Answer: significantly prevented

Question: What about the motor neuron size (SOD1^G93A rats [4]; [6]) of the same compound?
Answer: ameliorated

Question: And the “ubiquitin accumulation / aggregation in motor neurons” value (SOD1^G93A rats [4]; [6])?
Answer: significantly prevented

Question: And the “NF-kB luminescence in right hindlimb after sciatic nerve section” value (NF-kB)?
Answer: significantly prevented
